From BindingDB's records for doi:10.1021/jm00102a008 (University of South Florida, 1993)
Each block holds one molecule with its values, some of them ahead of it.

Target: T1, Adenosine receptor A1 (Cavia porcellus, UniProt P47745)
T1 sequence (P47745 whole entry): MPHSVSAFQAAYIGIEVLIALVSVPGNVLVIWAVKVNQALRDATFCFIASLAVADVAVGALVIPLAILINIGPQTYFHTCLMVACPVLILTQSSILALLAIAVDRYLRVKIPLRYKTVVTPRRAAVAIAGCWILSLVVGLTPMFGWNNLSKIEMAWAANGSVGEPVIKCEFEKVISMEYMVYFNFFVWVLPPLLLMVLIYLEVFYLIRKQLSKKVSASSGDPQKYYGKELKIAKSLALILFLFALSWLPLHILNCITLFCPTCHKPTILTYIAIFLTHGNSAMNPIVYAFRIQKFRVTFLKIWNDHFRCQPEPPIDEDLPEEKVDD
Experiment: Tested for adenosine A1 receptor agonistic activity by determining concentration needed to prolong the stimulus-QRS interval by 50% of the maximum response

SMILES: Nc1nc(N=NCc2cccc(Cl)c2)nc2c1ncn2C1O[C@H](CO)[C@@H](O)[C@H]1O (some centres not stated)
EC50: 49 µM

SMILES: Nc1nc(N=NCc2ccccc2)nc2c1ncn2C1O[C@H](CO)[C@@H](O)[C@H]1O (some centres not stated)
EC50: 83.2 µM

SMILES: Nc1nc(N=NCc2ccccc2Cl)nc2c1ncn2C1O[C@H](CO)[C@@H](O)[C@H]1O (some centres not stated)
EC50: 49 µM

SMILES: Nc1nc(N=NCCc2ccccc2)nc2c1ncn2C1O[C@H](CO)[C@@H](O)[C@H]1O (some centres not stated)
EC50: 83.2 µM

The next molecules have a lower EC50 than those just listed; values first:

EC50: 41.7 µM
SMILES: Nc1nc(N=NCc2ccccc2F)nc2c1ncn2C1O[C@H](CO)[C@@H](O)[C@H]1O (some centres not stated)

EC50: 41.7 µM
SMILES: Nc1nc(N=NCc2ccccn2)nc2c1ncn2C1O[C@H](CO)[C@@H](O)[C@H]1O (some centres not stated)

EC50: 41.7 µM
SMILES: Nc1nc(N=NCc2cccs2)nc2c1ncn2C1O[C@H](CO)[C@@H](O)[C@H]1O (some centres not stated)
